Laboratory results reported in article PMC12993615 (The journal of pain, 2024).

Assays:
Assay type in all cases: in vivo, male Sprague Dawley rats
[1] = test system: oxaliplatin-induced mechanical allodynia; experiment: Prevention of OIPN, paw withdrawal threshold; conditions: pregabalin 30 mg/kg PO QD
Protocol: (§1) Male Sprague Dawley rats (150–210 g) were housed in groups of 4 in intra-ventilated Perspex home cages. Humidity, temperature (21 ± 1 °C), and lighting (light-dark cycle of 12:12 hours) were controlled and maintained in the home cages, with food and water available ad libitum. Rats acclimatised to the home cages for at least 1 week. All experiments were carried out according to the Animals (Scientific Procedures) Act, 1986 (U.K. Government Home Office). The study was performed under the Home Office project licence number PP0847012. OIPN was established with a single dose of OXA (10 mg/kg, IP).
(§2) Pain measurements were made on Days 5/6 (when neuropathy has normally developed) and at the end of the study. […] Terminal plasma samples were taken for bioanalysis and proteomics (Somalogic). Brain regions involved in pain processing, that is, prefrontal cortex (PFC), periaqueductal grey (PAG), whole spinal cords (SC), and L4-L6 dorsal root ganglia, were collected for lipidomic and genomic (Genewiz, China) analyses.
(§3) Tactile allodynia (primary outcome measure) was assessed using paw withdrawal threshold (PWT), a measure of pain sensitivity. PWT was evaluated using calibrated von-Frey monofilaments (Touch-Test Sensory Evaluator; Scientific Marketing Associates) applied to the plantar surface of the left hind paw. PWT was determined by increasing and decreasing stimulus intensity and estimated using Dixon’s up-down method.[38],[39]
To acquire baseline readings, pain behaviour was assessed on 3 consecutive days (Days −3, −2, −1). The mean of Day −2 and Day −1 was considered the healthy baseline (HBL) prior to OIPN induction. On Days 5 and 6 after OXA injection, thresholds were reassessed. The mean of Days 5 and 6 was considered the neuropathic baseline (NPB). Animals were then ranked and randomised (based on a Latin square design) to treatment groups according to the percentage change of the mean thresholds observed in the NPB compared to the HBL. NPB expressed as a percentage change from HBL was calculated as follows (HBL-NPB)/HBL*100. All behavioural assessment was done by an experimenter blinded to the identity of the treatment. Separate people were responsible for dosing and assessment/data analysis.

[2] = Prevention of OIPN, body weight; conditions: pregabalin 30 mg/kg PO QD
Excerpt: as §2

[3] = test system: oxaliplatin-induced thermal hyperalgesia; experiment: Prevention of OIPN, cold plate latency; conditions: pregabalin 30 mg/kg PO QD, P < .001
Protocol: as §1
Pain measurements were made on Days 5/6 (when neuropathy has normally developed) and at the end of the study. […] Terminal plasma samples were taken for bioanalysis and proteomics (Somalogic). […]
Thermal hyperalgesia was assessed using a cold plate (Bioseb, France) set at a fixed temperature of 15 °C. Latency to the first escape behaviour from the plate was measured indicating discomfort to the thermal stimulation. […]
(§4) To acquire baseline readings, pain behaviour was assessed on 3 consecutive days (Days −3, −2, −1). […] NPB expressed as a percentage change from HBL was calculated as follows (HBL-NPB)/HBL*100. […]

[4] = test system: oxaliplatin-induced mechanical allodynia; experiment: 7-day treatment of established OIPN, paw withdrawal threshold; conditions: pregabalin 30 mg/kg PO on Days 7 and 14, P < .01
Protocol: as §1
Body weight was monitored throughout the study, and terminal plasma and whole brain samples were taken for bioanalysis.
as §3, §4

With `CC(C)C[C@H](CN)CC(=O)O` [pregabalin, Pregabalin, reference compound] the “PWT on Day 14 compared to HBL” value [1] was “neither the ART26.12 nor the pregabalin groups showed significant allodynia”, the “PWT on Day 5/6 compared to HBL” value ([1]; P < .05) was “significantly lower PWTs” and the “body weight in first 4 days post-administration of OXA” value [2] was “weight loss”. The “cold plate latencies on Day 14 versus vehicle” value [3] was “significantly higher cold plate latencies than the vehicle group” and the “PWT scores versus vehicle” value [4] was “significantly higher PWT scores than vehicle”.
